# According to patent publication US20220267331A1, “DOPAMINE-B-HYDROXYLASE INHIBITORS” (BIAL - PORTELA & CA, S.A., priority 2019, published 2022):
# Where a name gives a salt, the structure may show the parent alone.
# Molecular target: T1, DβH (Homo sapiens, UniProt P09172)
# T1 construct: 125 μL of plasma (or saline for blank reaction or standard curve); tissue Instituto Português do Sangue Transplantação, Centro Sangue Transplantação, Porto, Portugal; host or cells: human plasma from healthy donors
# T1 sequence (P09172 40-617 limits assumed): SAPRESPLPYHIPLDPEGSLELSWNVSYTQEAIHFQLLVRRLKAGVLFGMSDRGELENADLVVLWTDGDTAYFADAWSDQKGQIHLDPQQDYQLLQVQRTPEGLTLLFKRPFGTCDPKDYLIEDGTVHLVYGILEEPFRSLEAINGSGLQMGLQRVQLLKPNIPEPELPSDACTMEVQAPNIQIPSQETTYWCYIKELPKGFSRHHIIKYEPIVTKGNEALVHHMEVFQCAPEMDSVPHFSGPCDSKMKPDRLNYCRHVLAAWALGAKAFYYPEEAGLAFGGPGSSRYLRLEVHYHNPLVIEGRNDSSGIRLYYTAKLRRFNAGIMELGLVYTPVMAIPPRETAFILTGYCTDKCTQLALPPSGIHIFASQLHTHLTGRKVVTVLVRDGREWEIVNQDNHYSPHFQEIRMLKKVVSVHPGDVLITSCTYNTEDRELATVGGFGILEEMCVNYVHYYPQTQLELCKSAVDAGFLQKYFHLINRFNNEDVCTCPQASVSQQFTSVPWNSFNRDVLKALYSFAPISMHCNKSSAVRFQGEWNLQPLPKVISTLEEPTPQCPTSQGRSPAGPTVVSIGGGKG
# Assay: Dopamine-β-hydroxylase inhibition assay in human plasma
# Format: biochemical
# Conditions: for DβH (0.01 μM) / remaining activity at 0.01 µM: DβH activity in human plasma at 0.01 μM inhibitor; for DβH (0.1 μM) / remaining activity at 0.1 µM: DβH activity in human plasma at 0.1 μM inhibitor; for IC50: human plasma, curve fitting of 6 concentrations (100 nM to 0.3 nM)
# Experimental: The ability of a compound to inhibit DβH activity may be assessed in human plasma using the following assay.
# Dopamine beta hydroxylase activity in human plasma was measured by the method of Nagatsu and Udenfriend (Nagatsu, T. and Udenfriend, S. “Photometric assay of dopamine-p-hydroxylase activity in human blood.” Clin. Chem. 18(9) 980-983, 1972) with minor modifications. Catalase, N-ethylmaleimide, tyramine, disodium fumarate, pargyline, sodium acetate, ascorbic acid, copper sulfate and octopamine were obtained from Sigma Chemical Co., St. Louis, Mo. 63178. Human plasma samples were obtained from healthy donors (Instituto Português do Sangue Transplantação, Centro Sangue Transplantação, Porto, Portugal). From date of collection, plasma was stored at −80° C. until use. Test compounds were initially prepared in dimethyl sulfoxide at a concentration of 10 mM and diluted in dimethyl sulfoxide to the required concentrations. Test compounds were further diluted in ultrapure water to a concentration 20-fold to that of the final concentration to be tested. Final concentrations of test compounds were 10 and 100 nM. The various reagents used to make up the incubation buffer were premixed and consisted of the following components: sodium acetate buffer (1 M, pH 5.0, 18 mL), sodium fumarate (0.2 M, 4.5 mL), ascorbic acid (0.2 M, 4.5 ml, freshly prepared), pargyline (20 mM, freshly prepared, 4.5 mL), N-ethylmaleimide (0.2 M, 4.5 mL), catalase (10 000 U/mL, 9 mL), copper sulfate (20 μM, 4.5 mL) and 4.5 ultrapure water. The standard incubation mixture (total volume, 950 μL) contained: 50 μL of compound or vehicle (dimethyl sulfoxide 2%); 700 μL of incubation buffer; 125 μL of plasma (or saline for blank reaction or standard curve); 75 μL of saline. The reaction mixture was placed in water bath, shaking at 37° C. and pre-incubated for 10 minutes. Tyramine (0.5 M) was added and incubation proceeded for 45 minutes. The reaction contents were exposed to air. A sample of enzyme preparation (with 125 μL of plasma) that had been added perchloric acid 2 M at the end of the pre-incubation period was used as blank. A blank for each of the tested compounds was used. For octopamine standard curve, perchloric acid 2 M was replaced by increasing concentrations of octopamine prepared in perchloric acid 2 M (0.5, 1, 2.5, 5, 7.5, 10, 15, 20 μg/mL, final concentration). The incubation was stopped by adding 200 μL of 2 M molar perchloric acid, and the mixture was centrifuged at 9000 g for 5 min. The supernatant fluid (800 μL) was transferred to a column (SPE cartridge ISOLUTE SCX-3, 100 mg) and centrifuged at 150 g for 2 min. The column was washed two more times with 0.5 ml of ultrapure water by centrifuging at 150 g for 2 min. The adsorbed octopamine was eluted twice with 0.3 mL of 4 M ammonium hydroxide by centrifuging at 150 g for 2 min. Octopamine in the eluate was then converted to p-hydroxybenzaldehyde by adding 200 μL of sodium periodate (2%) and incubating for 6 min. Excess periodate was than reduced by adding 200 μL of sodium metabisulfite (10%). Absorbance was measured at […] in a 96-well plate by use of a SpectraMAX plus 384 (Molecular Devices) with software SOFTmax® PRO Software 5.3 spectrophotometer. Absorbance was linear with octopamine concentration from 0.5 to 20 μg/mL. Dopamine beta hydroxylase activity is determined as nmol of octopamine formed/mL of plasma/hour and effect of compounds is presented as % control. Results are reported in the table below as activity in % of control at the inhibitor concentration tested.
# IC50 values of selected compounds were calculated based on curve fitting of results of 6 different compound concentrations (100 nM to 0.3 nM). IC50 data are reported in nM concentration.
SMILES,DβH (0.01 μM),DβH (0.1 μM),IC50,remaining activity at 0.01 µM,remaining activity at 0.1 µM
"Cl.Fc1ccc(F)c([C@H]2Cc3c(CCCN4CCOCC4)[nH]c(=S)n3C2)c1F [Example 1, (R)-1-(3-morpholinopropyl)-6-(2,3,6-trifluorophenyl)-2,5,6,7-tetrahydro-3H-pyrrolo[1,2-c]imidazole-3-thione hydrochloride]",64.6 % of Control,12.9 % of Control,12.7 nM,,
"NCCCc1[nH]c(=S)n2c1C[C@H](c1c(F)ccc(F)c1F)C2 [Example 2, (R)-1-(3-aminopropyl)-6-(2,3,6-trifluorophenyl)-2,5,6,7-tetrahydro-3H-pyrrolo[1,2-c]imidazole-3-thione]",,,,98.4%,66.6%
"Fc1ccc(F)c([C@H]2Cc3c(CCCNCC4CCOCC4)[nH]c(=S)n3C2)c1F [Example 3, (R)-1-(3-(((tetrahydro-2H-pyran-4-yl)methyl)amino)propyl)-6-(2,3,6-trifluorophenyl)-2,5,6,7-tetrahydro-3H-pyrrolo[1,2-c]imidazole-3-thione]",,,9.5 nM,57.3%,15.5%
"Cl.NCCCc1[nH]c(=S)n2c1C[C@H](c1c(F)ccc(F)c1F)C2 [Example 4, (R)-1-(3-aminopropyl)-6-(2,3,6-trifluorophenyl)-2,5,6,7-tetrahydro-3H-pyrrolo[1,2-c]imidazole-3-thione hydrochloride]",82.7 % of Control,54.2 % of Control,,,
"Fc1ccc(F)c([C@H]2Cc3c(CCCNC4CCOCC4)[nH]c(=S)n3C2)c1F [Example 5, (R)-1-(3-((tetrahydro-2H-pyran-4-yl)amino)propyl)-6-(2,3,6-trifluorophenyl)-2,5,6,7-tetrahydro-3H-pyrrolo[1,2-c]imidazole-3-thione]",,,12.7 nM,42.5%,5.4%
"Fc1ccc(F)c([C@H]2Cc3c(CCCN4CCOCC4)[nH]c(=S)n3C2)c1F [Example 6, (R)-1-(3-morpholinopropyl)-6-(2,3,6-trifluorophenyl)-2,5,6,7-tetrahydro-3H-pyrrolo[1,2-c]imidazole-3-thione]",,,11.6 nM,63.6%,10.4%
"Cl.Fc1ccc(F)c([C@H]2Cc3c(CCCN4CC[C@@H](F)C4)[nH]c(=S)n3C2)c1F [Example 7, (R)-1-(3-((R)-3-fluoropyrrolidin-1-yl)propyl)-6-(2,3,6-trifluorophenyl)-2,5,6,7-tetrahydro-3H-pyrrolo[1,2-c]imidazole-3-thione hydrochloride]",,3.0 % of Control,8.3 nM,42.5%,
"CN(C)CCCc1[nH]c(=S)n2c1C[C@H](c1c(F)ccc(F)c1F)C2 [Example 8, (R)-1-(3-(dimethylamino)propyl)-6-(2,3,6-trifluorophenyl)-2,5,6,7-tetrahydro-3H-pyrrolo[1,2-c]imidazole-3-thione]",113.4 % of Control,,,,52.8%
"Fc1ccc(F)c([C@H]2Cc3c(CCCN[C@H]4CCCOC4)[nH]c(=S)n3C2)c1F [Example 9, (R)-1-(3-(((S)-tetrahydro-2H-pyran-3-yl)amino)propyl)-6-(2,3,6-trifluorophenyl)-2,5,6,7-tetrahydro-3H-pyrrolo[1,2-c]imidazole-3-thione]",,,19.1 nM,48.1%,12.2%
"CN(C)CCCc1[nH]c(=S)n2c1C[C@H](c1c(F)ccc(F)c1F)C2.Cl [Example 10, (R)-1-(3-(dimethylamino)propyl)-6-(2,3,6-trifluorophenyl)-2,5,6,7-tetrahydro-3H-pyrrolo[1,2-c]imidazole-3-thione hydrochloride]",86.2 % of Control,45.8 % of Control,,,
"Fc1ccc(F)c([C@H]2Cc3c(CCCN4CC[C@@H](F)C4)[nH]c(=S)n3C2)c1F [Example 11, (R)-1-(3-((R)-3-fluoropyrrolidin-1-yl)propyl)-6-(2,3,6-trifluorophenyl)-2,5,6,7-tetrahydro-3H-pyrrolo[1,2-c]imidazole-3-thione]",40.6 % of Control,7.7 % of Control,7.2 nM,,
"CN(CCCc1[nH]c(=S)n2c1C[C@H](c1c(F)ccc(F)c1F)C2)C1CCOCC1 [Example 12, (R)-1-(3-(methyl(tetrahydro-2H-pyran-4-yl)amino)propyl)-6-(2,3,6-trifluorophenyl)-2,5,6,7-tetrahydro-3H-pyrrolo[1,2-c]imidazole-3-thione]",,,20.9 nM,71.2%,18.9%
"CN(CCCc1[nH]c(=S)n2c1C[C@H](c1c(F)ccc(F)c1F)C2)C1CCOC1 (stereo partly drawn) [Example 13, (6R)-1-(3-(methyl(tetrahydrofuran-3-yl)amino)propyl)-6-(2,3,6-trifluorophenyl)-2,5,6,7-tetrahydro-3H-pyrrolo[1,2-c]imidazole-3-thione hydrochloride]",,,22.2 nM,69.9%,29.3%
"CN(CCCc1[nH]c(=S)n2c1C[C@H](c1c(F)ccc(F)c1F)C2)C1CCOCC1.Cl [Example 14, (R)-1-(3-(methyl(tetrahydro-2H-pyran-4-yl)amino)propyl)-6-(2,3,6-trifluorophenyl)-2,5,6,7-tetrahydro-3H-pyrrolo[1,2-c]imidazole-3-thione hydrochloride]",73.2 % of Control,19.0 % of Control,33.1 nM,,
"Fc1ccc(Cl)c(F)c1[C@]12C[C@H]1c1c(CCCN3CCOCC3)[nH]c(=S)n1C2 [Example 15, (5aS,6aR)-5a-(3-chloro-2,6-difluorophenyl)-1-(3-morpholinopropyl)-5,5a,6,6a-tetrahydrocyclopropa[3,4]pyrrolo[1,2-c]imidazole-3(2H)-thione hydrochloride]",,,2.7 nM,13.6%,1%
"Fc1ccc(Cl)cc1[C@]12C[C@H]1c1c(CCCN3CCOCC3)[nH]c(=S)n1C2 [Example 16, (5aS,6aR)-5a-(5-chloro-2-fluorophenyl)-1-(3-morpholinopropyl)-5,5a,6,6a-tetrahydrocyclopropa[3,4]pyrrolo[1,2-c]imidazole-3(2H)-thione]",,,7.7 nM,36.2%,3.3%
